Assay results: US20240360139A1, “BLOOD BRAIN BARRIER PENETRATING SELECTIVE INHIBITORS OF ROCK2 PROTEIN KINASES AND USES THEREOF” (GENOSCO Inc., priority 2023, published 2024)
pIC50: −log10 of the molar value.

Legend:
[1] = target: T1, Recombinant ROCK1 (amino acids 1-477) (Homo sapiens, UniProt Q13464); test: ROCK inhibition assay, LANCE Ultra TR-FRET (ROCK1); assay type: biochemical; conditions: 1 mM of ATP
T1 construct: Recombinant ROCK1 (amino acids 1-477)
Procedure: (§1) Kinase IC50 was determined through an in vitro assay based on LANCE Ultra TR-FRET (Time-Resolved Fluorescence Resonance Energy Transfer) homogeneous technologies method 5 (Perkin Elmer). Recombinant ROCK1 (amino acids 1-477) and ROCK2 (amino acids 5-554) proteins were purchased from Carna Biosciences and SignalChem. Compound activities were measured by Envision and IC50s were calculated. The assays were performed in white LUMITRAC™ 200 96 well half-area microplates from Greiner Bio-One. The kinase reaction buffer consisted of 50 mM HEPES pH 7.5, 1 mM EGTA, 10 mM MgCl2, 2 mM DTT and 0.01% 10 Tween-20. Kinases were incubated with 50 nM (ULight-CREBtide) substrate in the presence of 1 mM (ROCK1) or 1 mM (ROCK2) of ATP. The kinase reaction was carried out for 1 hour before addition of a stopping buffer to a final of 10 mM EDTA and 0.6 nM of LANCE Ultra Europium anti-phospho-CREB (Ser133) antibody (PerkinElmer TRF0200) in LANCE detection buffer. All assay incubations were performed at room temperature, and the microplates were sealed with polyester film during that time. The reaction was incubated for 1 hour, and the signal was read in Envision in TR-FRET mode (excitation at 320 nm and emission at 615/665 nm).
(§2) As used herein, a way to describe potency of inhibitory activity (nM) is a value of inhibitory activity at 50% (IC50).

[2] = target: T2, Recombinant ROCK2 (amino acids 5-554) (Homo sapiens, UniProt O75116); test: ROCK inhibition assay, LANCE Ultra TR-FRET (ROCK2); assay type: biochemical; conditions: 1 mM of ATP
T2 construct: ROCK2 (amino acids 5-554)
T2 sequence (O75116 5-554): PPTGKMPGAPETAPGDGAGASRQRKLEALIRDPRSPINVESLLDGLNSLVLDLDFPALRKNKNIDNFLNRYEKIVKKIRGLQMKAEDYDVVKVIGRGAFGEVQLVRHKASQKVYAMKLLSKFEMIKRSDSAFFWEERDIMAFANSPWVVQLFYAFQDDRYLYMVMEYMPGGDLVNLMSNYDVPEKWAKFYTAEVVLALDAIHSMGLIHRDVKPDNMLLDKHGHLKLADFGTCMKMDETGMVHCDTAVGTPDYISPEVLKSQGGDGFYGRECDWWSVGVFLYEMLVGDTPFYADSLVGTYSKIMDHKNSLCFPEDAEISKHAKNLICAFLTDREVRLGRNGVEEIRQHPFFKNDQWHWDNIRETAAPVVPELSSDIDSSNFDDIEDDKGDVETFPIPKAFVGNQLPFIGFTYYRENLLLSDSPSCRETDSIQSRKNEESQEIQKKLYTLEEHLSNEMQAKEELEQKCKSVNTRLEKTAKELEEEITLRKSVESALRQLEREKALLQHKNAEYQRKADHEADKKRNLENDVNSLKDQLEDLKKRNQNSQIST
Procedure: as §1, §2

T1 sequence (Q13464 1-477): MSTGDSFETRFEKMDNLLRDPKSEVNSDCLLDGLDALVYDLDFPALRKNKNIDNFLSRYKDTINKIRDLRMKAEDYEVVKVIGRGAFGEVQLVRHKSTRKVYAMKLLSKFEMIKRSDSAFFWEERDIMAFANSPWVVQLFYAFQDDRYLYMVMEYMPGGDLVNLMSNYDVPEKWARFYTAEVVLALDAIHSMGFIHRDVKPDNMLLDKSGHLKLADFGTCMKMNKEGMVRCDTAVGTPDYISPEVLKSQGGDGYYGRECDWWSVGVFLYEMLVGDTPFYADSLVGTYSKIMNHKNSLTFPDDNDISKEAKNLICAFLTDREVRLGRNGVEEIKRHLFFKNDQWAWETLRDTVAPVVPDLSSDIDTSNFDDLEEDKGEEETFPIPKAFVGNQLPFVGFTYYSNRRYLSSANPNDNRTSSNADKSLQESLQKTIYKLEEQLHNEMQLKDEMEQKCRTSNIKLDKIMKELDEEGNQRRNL

| pIC50 [1] | pIC50 [2] | Compound |
| --- | --- | --- |
| < 6.30 | > 7.70 | COc1ccc2c(c1)CC(C(=O)c1cn(C[C@@H]3CCN3)c3cc(-c4cn[nH]c4F)ccc13)CO2 (stereo partly drawn) [Compound 1-37] |
| < 6.30 | > 7.70 | COc1ccc2c(c1)CC(C(=O)c1cn(CCN(C)C)c3nc(-c4c[nH]nc4Cl)ccc13)CO2 (stereo not drawn) [Compound 1-13] |
| 6.30 to 6.70 | > 7.70 | COc1ccc2c(c1)CC(C(=O)c1cn(C[C@@H]3CCN3)c3cc(-c4cn[nH]c4OC)ccc13)CO2 (stereo partly drawn) [Compound 1-41] |
| < 6.30 | < 6.30 | COc1ccc2c(c1)CC(C(=O)c1nn(CCN(C)C)c3cc(-c4c[nH]nc4Cl)ccc13)CCO2 (stereo not drawn) [Compound 5-65] |
| < 6.30 | 6.70 to 7.68 | CCN(CC)CCn1cc(C(=O)C2COc3ccc(Cl)cc3C2)c2ccc(-c3cn[nH]c3Cl)cc21 (stereo not drawn) [Compound 3-12] |
| < 6.30 | 6.70 to 7.68 | COc1ccc2c(c1)CC(C(=O)c1cn(C[C@@H]3CCN3C)c3cc(-c4cn[nH]c4F)ccc13)CO2 (stereo partly drawn) [Compound 1-48] |
| 6.70 to 7.68 | 6.70 to 7.68 | CN(C)C1(Cn2cc(C(=O)C3COc4ccc(Cl)cc4C3)c3ccc(-c4cn[nH]c4Cl)cc32)CC1 (stereo not drawn) [Compound 2-13] |
| > 7.70 | > 7.70 | COc1[nH]ncc1-c1ccc2c(C(=O)C3COc4ccc(Cl)cc4C3)cn(CC3(N)CC3)c2c1 (stereo not drawn) [Compound 4-1, [1-[(1-aminocyclopropyl)methyl]-6-(5-methoxy-1H-pyrazol-4-yl)indol-3-yl]-(6-chlorochroman-3-yl)methanone] |
| < 6.30 | < 6.30 | CN(C)CCn1nc(C(=O)C2CCOc3ccc(F)cc3C2)c2ccc(-c3c[nH]nc3Cl)cc21 (stereo not drawn) [Compound 5-63] |
| < 6.30 | 6.70 to 7.68 | O=C(c1cn(CC2CCN2)c2cc(-c3cn[nH]c3Cl)ccc12)C1COc2ccc(Cl)cc2C1 (stereo not drawn) [Compound 1-31] |
| < 6.30 | 6.70 to 7.68 | CN(C)CCn1nc(C(=O)C2COc3ccc(Cl)cc3O2)c2ccc(-c3c[nH]nc3Cl)cc21 (stereo not drawn) [Compound 5-61] |
| < 6.30 | < 6.30 | CN1CCCC1Cn1cc(C(=O)C2COc3ccc(Cl)cc3C2)c2ccc(-c3cn[nH]c3Cl)cc21 (stereo not drawn) [Compound 1-20] |
| 6.30 to 6.70 | 6.70 to 7.68 | CN(C)CCn1cc(C(=O)[C@@H]2COc3ccc(Cl)cc3C2)c2ccc(-c3cn[nH]c3F)cc21 [Compound 1-25] |
| < 6.30 | > 7.70 | CCN(C)CCn1cc(C(=O)[C@@H]2COc3ccc(OC)cc3C2)c2ccc(-c3cn[nH]c3Cl)cc21 [Compound 3-26] |
| 6.70 to 7.68 | > 7.70 | NCCn1cc(C(=O)C2COc3ccc(F)cc3C2)c2cnc(-c3c[nH]nc3Cl)cc21 (stereo not drawn) [Compound 2-3] |
| 6.30 to 6.70 | 6.30 to 6.70 | CN1CCCC1Cn1cc(C(=O)C2COc3ccc(Cl)cc3C2)c2ccc(-c3cn[nH]c3F)cc21 (stereo not drawn) [Compound 1-27] |
| 6.70 to 7.68 | > 7.70 | C[C@@H](N)Cn1cc(C(=O)C2COc3ccc(Cl)cc3C2)c2ccc(-c3c[nH]nc3Cl)cc21 (stereo partly drawn) [Compound 2-5] |
| < 6.30 | < 6.30 | CN(C)CCn1cc(C(=O)C2COc3ccc(Cl)cc3C2)c2ccc(-c3cn[nH]c3F)nc21 (stereo not drawn) [Compound 1-16] |
| 6.30 to 6.70 | > 7.70 | CNCCn1cc(C(=O)C2COc3ccc(F)cc3C2)c2ccc(-c3c[nH]nc3Cl)cc21 (stereo not drawn) [Compound 3-5] |
| < 6.30 | > 7.70 | COc1ccc2c(c1)C[C@H](C(=O)c1cn(CCN(C)C)c3cc(-c4c[nH]nc4Cl)ccc13)CO2 [Compound 5-4] |

| pIC50 [1] | pIC50 [2] | Compound |
| --- | --- | --- |
| < 6.30 | 6.70 to 7.68 | CNCCn1cc(C(=O)C2COc3ccc(F)cc3C2)c2cnc(-c3c[nH]nc3Cl)cc21 (stereo not drawn) [Compound 3-2] |
| < 6.30 | < 6.30 | COc1ccc2c(c1)CC(C(=O)c1nn(CCN(C)C)c3cc(-c4c[nH]nc4OC)ccc13)CCO2 (stereo not drawn) [Compound 5-64] |
| < 6.30 | 6.30 to 6.70 | COc1n[nH]cc1-c1ccc2c(C(=O)[C@H]3COc4ccc(Cl)cc4C3)cn(CCCN(C)C)c2c1 [Compound 3-8] |
| 6.70 to 7.68 | > 7.70 | NCCn1cc(C(=O)C2COc3ccc(Cl)cc3C2)c2cnc(-c3c[nH]nc3Cl)cc21 (stereo not drawn) [Compound 2-1, [1-(2-aminoethyl)-6-(3-chloro-1H-pyrazol-4-yl)pyrrolo[3,2-c]pyridin-3-yl]-(6-chlorochroman-3-yl) methanone] |
| 6.30 to 6.70 | > 7.70 | CN(C)CCn1cc(C(=O)[C@@H]2COc3ccc(Cl)cc3C2)c2ccc(-c3cn[nH]c3Cl)cc21 [Compound 5-36] |
| < 6.30 | > 7.70 | C[C@@H](Cn1cc(C(=O)C2COc3ccc(Cl)cc3C2)c2ccc(-c3cn[nH]c3Cl)cc21)N(C)C (stereo partly drawn) [Compound 2-12, (6-chlorochroman-3-yl)-[6-(5-chloro-1H-pyrazol-4-yl)-1-[(2S)-2-(dimethylamino)propyl]indol-3-yl]methanone] |
| < 6.30 | 6.70 to 7.68 | O=C(c1cn(C2CNC2)c2cc(-c3c[nH]nc3Cl)ncc12)C1COc2ccc(F)cc2C1 (stereo not drawn) [Compound 1-15] |
| < 6.30 | 6.30 to 6.70 | CN(C)CCn1cc(C(=O)C2COc3ccc(F)cc3C2)c2cnc(-c3c[nH]nc3Cl)cc21 (stereo not drawn) [Compound 1-12] |
| 6.30 to 6.70 | > 7.70 | CN(C)CCn1cc(C(=O)[C@@H]2COc3ccc(F)cc3C2)c2ccc(-c3c[nH]nc3Cl)cc21 [Compound 5-21] |
| > 7.70 | > 7.70 | NCCn1cc(C(=O)C2COc3ccc(F)cc3C2)c2ccc(-c3c[nH]nc3Cl)cc21 (stereo not drawn) [Compound 2-4] |
| < 6.30 | 6.70 to 7.68 | CN(C)CCn1cc(C(=O)C2COc3ccc(F)cc3C2)c2ccc(-c3c[nH]nc3Cl)cc21 (stereo not drawn) [Compound 5-19] |
| < 6.30 | > 7.70 | COc1ccc2c(c1)CC(C(=O)c1cn(C[C@@H]3CCN3C)c3cc(-c4cn[nH]c4OC)ccc13)CO2 (stereo partly drawn) [Compound 1-47] |
| < 6.30 | 6.70 to 7.68 | CN(C)CCn1nc(C(=O)C2COc3ccccc3O2)c2ccc(-c3cn[nH]c3)cc21 (stereo not drawn) [Compound 5-43] |
| < 6.30 | 6.30 to 6.70 | COc1ccc2c(c1)CC(C(=O)c1cn(CCN(C)C)c3cc(-c4c[nH]nc4Cl)ncc13)CO2 (stereo not drawn) [Compound 1-14] |
| 6.30 to 6.70 | > 7.70 | CN(C)CCn1nc(C(=O)[C@@H]2COc3ccc(F)cc3C2)c2ccc(-c3c[nH]nc3Cl)cc21 [Compound 5-53] |
| < 6.30 | 6.70 to 7.68 | COc1[nH]ncc1-c1cc2c(cn1)c(C(=O)C1COc3ccc(Cl)cc3C1)cn2CCN(C)C (stereo not drawn) [Compound 1-3, (6-chlorochroman-3-yl)(1-(2-(dimethylamino)ethyl)-6-(5-methoxy-1H-pyrazol-4-yl)-1H-pyrrolo[3,2-c]pyridin-3-yl)methanone dimethanesulfonic acid] |
| < 6.30 | > 7.70 | COc1ccc2c(c1)C[C@@H](C(=O)c1cn(CCN(C)C)c3cc(-c4c[nH]nc4Cl)ccc13)CO2 [Compound 5-8] |
| < 6.30 | < 6.30 | CN(C)CCn1cc(C(=O)C2COc3ccc(Cl)cc3C2)c2cnc(-c3cn[nH]c3Cl)nc21 (stereo not drawn) [Compound 1-33] |
| < 6.30 | 6.30 to 6.70 | COc1[nH]ncc1-c1ccc2c(C(=O)C3COc4ccc(Cl)cc4C3)cn(CCN(C)C)c2n1 (stereo not drawn) [Compound 1-8] |
